# According to article PMC7116001 (Science (New York, N.Y.), 2020):
# Molecular target: T1, S. acidocaldarius 20S proteasome (Saci_0613/Saci_0662ΔN/Saci_0909ΔN) (Sulfolobus acidocaldarius, UniProt Q4JAA8)
# T1 sequence (Q4JAA8 11-203): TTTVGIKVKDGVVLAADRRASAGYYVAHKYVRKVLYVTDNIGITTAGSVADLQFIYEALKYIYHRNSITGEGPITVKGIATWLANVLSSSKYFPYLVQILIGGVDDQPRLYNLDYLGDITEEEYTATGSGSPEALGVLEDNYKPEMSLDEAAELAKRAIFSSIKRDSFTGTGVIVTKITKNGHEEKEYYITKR
# T1 sequence (Q4JB24 1-242 partner): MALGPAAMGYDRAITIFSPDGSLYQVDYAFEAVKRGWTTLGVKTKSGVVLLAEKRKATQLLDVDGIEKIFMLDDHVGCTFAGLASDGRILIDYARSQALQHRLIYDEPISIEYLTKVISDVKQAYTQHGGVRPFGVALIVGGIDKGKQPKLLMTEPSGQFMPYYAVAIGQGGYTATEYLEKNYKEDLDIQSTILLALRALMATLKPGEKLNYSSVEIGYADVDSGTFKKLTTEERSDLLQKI
# T1 sequence (Q4JAY3 7-195 partner): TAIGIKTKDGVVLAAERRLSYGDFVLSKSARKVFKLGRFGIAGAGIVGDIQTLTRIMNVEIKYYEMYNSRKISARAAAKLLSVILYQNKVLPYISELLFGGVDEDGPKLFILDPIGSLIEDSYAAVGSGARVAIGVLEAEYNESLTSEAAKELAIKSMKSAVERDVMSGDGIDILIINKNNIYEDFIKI
# Test: degradation of Urm1
# Format: biochemical
# Conditions: substrate 3xUrm1-GFP; covalent (reversible boronate on Thr1, modelled)
structure (smiles),measurement,value
CC(C)C[C@H](NC(=O)[C@H](Cc1ccccc1)NC(=O)c1cnccn1)B(O)O [bortezomib],rate of substrate degradation,"with different concentrations of inhibitor, the rate of substrate degradation was diminished"
